Measured values reported in ChEMBL document CHEMBL1201862, “PubChem BioAssay data set” (2004).
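Following 48 hours of exposure in 96-well plates, responses at five concentrations were used to interpolate endpoints linearly. Here, GI50 denotes the concentration required for 50% inhibition of growth.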 Calls of active or inactive are those of the source. No stated cut-off is given here; in the data, active = GI50 up to about 1.1 µM and inactive = higher.

Legend:
Experiment in all cases: NCI-60 cell line screen, 48 h
CCRF-CEM = tested on: CCRF-CEM
IGROV-1 = tested on: IGROV-1
K562 = tested on: K562
ACHN = tested on: ACHN
HOP-18 = tested on: HOP-18
HL-60 = tested on: HL-60
786-0 = tested on: 786-0
SF-539 = tested on: SF-539
MOLT-4 = tested on: MOLT-4
LOX IMVI = tested on: LOX IMVI
SN12C = tested on: SN12C
RXF 393 = tested on: RXF 393
OVCAR-4 = tested on: OVCAR-4
CAKI-1 = tested on: CAKI-1
Malme-3M = tested on: Malme-3M
A549 = tested on: A549
UACC-257 = tested on: UACC-257
SK-MEL-28 = tested on: SK-MEL-28
T47D = tested on: T47D
MDA-N = tested on: MDA-N

SMILES | GI50 (CCRF-CEM) | GI50 (IGROV-1) | GI50 (K562) | GI50 (ACHN) | GI50 (HOP-18) | GI50 (HL-60) | GI50 (786-0) | GI50 (SF-539) | GI50 (MOLT-4) | GI50 (LOX IMVI) | GI50 (SN12C) | GI50 (RXF 393) | GI50 (OVCAR-4) | GI50 (CAKI-1) | GI50 (Malme-3M) | GI50 (A549) | GI50 (UACC-257) | GI50 (SK-MEL-28) | GI50 (T47D) | GI50 (MDA-N)
CN(C(=O)C1CC1)C1C2CN3CCC(O2)C13 (stereo not drawn) | > 100 µM (inactive) | > 100 µM (inactive) | > 100 µM (inactive) | > 100 µM (inactive) | > 100 µM (inactive) | > 100 µM (inactive) | > 100 µM (inactive) | > 100 µM (inactive) | > 100 µM (inactive) | > 100 µM (inactive) | > 100 µM (inactive) | > 100 µM (inactive) | > 100 µM (inactive) | > 100 µM (inactive) | > 100 µM (inactive) | > 100 µM (inactive) | > 100 µM (inactive) | > 100 µM (inactive) |  | 
O=C(O)CSc1nnc(-c2ccccc2)[nH]1 | > 100 µM (inactive) | > 100 µM (inactive) | > 100 µM (inactive) | > 100 µM (inactive) | > 100 µM (inactive) | > 100 µM (inactive) | > 100 µM (inactive) | > 100 µM (inactive) | > 100 µM (inactive) | > 100 µM (inactive) | > 100 µM (inactive) | > 100 µM (inactive) | > 100 µM (inactive) | > 100 µM (inactive) | > 100 µM (inactive) | > 100 µM (inactive) |  | > 100 µM (inactive) |  | 
O=C(/C=C/c1ccccc1O)c1cccnc1 | > 100 µM (inactive) | > 100 µM (inactive) | > 100 µM (inactive) | > 100 µM (inactive) | > 100 µM (inactive) | > 100 µM (inactive) | > 100 µM (inactive) | > 100 µM (inactive) | > 100 µM (inactive) | > 100 µM (inactive) | > 100 µM (inactive) | > 100 µM (inactive) | > 100 µM (inactive) | > 100 µM (inactive) | > 100 µM (inactive) | > 100 µM (inactive) | > 100 µM (inactive) | > 100 µM (inactive) |  | 
COC(=O)c1ccc2c(c1)C(NC(C)=O)CCc1cc(OC)c(OC)c(OC)c1-2 (stereo not drawn) | 0.0133 µM (active) | 0.0163 µM (active) | 0.0128 µM (active) | 0.018 µM (active) | > 40.4 µM (inactive) | 0.0136 µM (active) | 0.015 µM (active) | 0.0124 µM (active) | 0.0151 µM (active) | 0.0149 µM (active) | 0.0223 µM (active) | 0.0139 µM (active) | 11.9 µM (inactive) | 0.0177 µM (active) | 0.015 µM (active) | 0.018 µM (active) | 0.53 µM (active) | 0.0265 µM (active) | > 100 µM (inactive) | 0.0113 µM (active)
C1CC2=C(C1)C1=S(S2)SC2=C1CCC2 | > 100 µM (inactive) | > 100 µM (inactive) | > 100 µM (inactive) | 45.7 µM (inactive) | > 100 µM (inactive) | > 100 µM (inactive) | > 100 µM (inactive) | > 100 µM (inactive) | > 100 µM (inactive) | > 100 µM (inactive) | > 100 µM (inactive) | > 100 µM (inactive) | > 100 µM (inactive) | > 100 µM (inactive) | > 100 µM (inactive) | > 100 µM (inactive) | > 100 µM (inactive) | > 100 µM (inactive) |  | 
COc1ccc(C(C)c2cc3c(cc2OC)OCO3)cc1 (stereo not drawn) | 0.131 µM (active) | 0.104 µM (active) | 0.0389 µM (active) | 3.01 µM (inactive) | 0.371 µM (active) | 0.0802 µM (active) | 0.098 µM (active) | 0.1 µM (active) | 0.264 µM (active) | 0.205 µM (active) | 0.378 µM (active) | 0.264 µM (active) | 49.4 µM (inactive) | 0.107 µM (active) | 0.0951 µM (active) | 0.218 µM (active) | 7.38 µM (inactive) | 2.33 µM (inactive) | 2.08 µM (inactive) | 0.019 µM (active)
CC(C)N(C(=O)C12C3C4C1C1C2C3C41C#N)C(C)C (stereo not drawn) | > 50 µM (inactive) | > 100 µM (inactive) | > 69.2 µM (inactive) | > 100 µM (inactive) | > 100 µM (inactive) | > 41.4 µM (inactive) | > 100 µM (inactive) | > 100 µM (inactive) | > 100 µM (inactive) | > 47.1 µM (inactive) | > 100 µM (inactive) | > 100 µM (inactive) | > 100 µM (inactive) | > 100 µM (inactive) | > 100 µM (inactive) | > 100 µM (inactive) | > 100 µM (inactive) | > 100 µM (inactive) |  | 
CC(=O)Nc1ccc(C(=O)NN2C(=O)C(Cl)C2c2ccc(Cl)cc2)cc1 (stereo not drawn) | > 100 µM (inactive) | 37.3 µM (inactive) | > 100 µM (inactive) | > 57.5 µM (inactive) | 64.4 µM (inactive) | > 100 µM (inactive) | 18.7 µM (inactive) | 21.6 µM (inactive) | > 100 µM (inactive) |  | 39.6 µM (inactive) |  | > 100 µM (inactive) |  | > 42.9 µM (inactive) | > 72.4 µM (inactive) | > 100 µM (inactive) | 52.5 µM (inactive) | > 100 µM (inactive) | 
CC(=O)OC1CC(n2cc(F)c(=O)[nH]c2=O)OC1CO (stereo not drawn) | 0.117 µM (active) | > 61.7 µM (inactive) | 15.1 µM (inactive) | 0.0585 µM (active) | 6.61 µM (inactive) | 4.31 µM (inactive) | 0.494 µM (active) | 0.0418 µM (active) | 1.08 µM (active) | 0.324 µM (active) | 1.23 µM (inactive) | 22.2 µM (inactive) | 59.8 µM (inactive) | 0.818 µM (active) | 18 µM (inactive) | 0.143 µM (active) | 49.1 µM (inactive) | 15.6 µM (inactive) | 12.1 µM (inactive) | 24.3 µM (inactive)
CCc1cccc(C)c1NC(=O)CC1Sc2ccccc2NC1=O (stereo not drawn) | 25.2 µM (inactive) | 88.7 µM (inactive) | 23.8 µM (inactive) | 40.8 µM (inactive) | 19.5 µM (inactive) | 18.1 µM (inactive) | 29.2 µM (inactive) | 31.9 µM (inactive) | 29.2 µM (inactive) | 48.8 µM (inactive) | > 100 µM (inactive) | 16.9 µM (inactive) | 75.3 µM (inactive) | 60.5 µM (inactive) | 27.3 µM (inactive) | 44.2 µM (inactive) | 11.4 µM (inactive) | 84.7 µM (inactive) |  | 
C/C(=N/O)c1sc(-c2nc(C)c(/C(C)=N\O)s2)nc1C | > 100 µM (inactive) | > 100 µM (inactive) | > 100 µM (inactive) | > 100 µM (inactive) | > 100 µM (inactive) | > 100 µM (inactive) | > 100 µM (inactive) | > 100 µM (inactive) | > 100 µM (inactive) | > 100 µM (inactive) | > 100 µM (inactive) | > 100 µM (inactive) | > 100 µM (inactive) | > 100 µM (inactive) | > 100 µM (inactive) | > 100 µM (inactive) | > 100 µM (inactive) | > 100 µM (inactive) |  | 
O=C1O[C@H](C(Cl)(Cl)Cl)N2CCCC12 (stereo partly drawn) | > 100 µM (inactive) | > 100 µM (inactive) | > 100 µM (inactive) | > 100 µM (inactive) | 18.5 µM (inactive) | > 100 µM (inactive) | > 100 µM (inactive) | > 100 µM (inactive) | > 100 µM (inactive) | > 100 µM (inactive) | > 100 µM (inactive) | > 100 µM (inactive) | > 100 µM (inactive) | > 100 µM (inactive) | > 100 µM (inactive) | > 100 µM (inactive) | > 100 µM (inactive) | > 100 µM (inactive) |  | 
CC(=O)/C=C/c1ccc(C)cc1 | > 100 µM (inactive) | > 100 µM (inactive) | > 100 µM (inactive) | > 100 µM (inactive) | > 100 µM (inactive) | > 100 µM (inactive) | > 100 µM (inactive) | > 100 µM (inactive) | > 100 µM (inactive) | > 100 µM (inactive) | > 100 µM (inactive) | > 100 µM (inactive) | > 100 µM (inactive) | > 100 µM (inactive) | > 100 µM (inactive) | > 100 µM (inactive) | > 100 µM (inactive) | > 100 µM (inactive) |  | 
CCOC(=O)c1c(C(F)(F)F)oc2c1ccc1nc3nonc3nc12 | 1.91 µM (inactive) | 23.2 µM (inactive) | 2.67 µM (inactive) | 15.3 µM (inactive) | 11 µM (inactive) | 4.46 µM (inactive) | 12.4 µM (inactive) | 16.2 µM (inactive) | 2.54 µM (inactive) | 16.2 µM (inactive) | 17.4 µM (inactive) | 11.9 µM (inactive) | 9.82 µM (inactive) | 14 µM (inactive) | 17 µM (inactive) | 18 µM (inactive) | 13.5 µM (inactive) | 14.3 µM (inactive) |  | 
CC(C)(C)OC(=O)Cc1ccc2c(ccn2Cc2ccccc2)c1 | > 100 µM (inactive) | > 100 µM (inactive) | > 100 µM (inactive) | > 100 µM (inactive) | > 100 µM (inactive) | 28.2 µM (inactive) | 73.8 µM (inactive) | 93.5 µM (inactive) | 18 µM (inactive) | 47.4 µM (inactive) | 52.1 µM (inactive) | 37.1 µM (inactive) | 83.6 µM (inactive) | > 100 µM (inactive) | > 100 µM (inactive) | 48.8 µM (inactive) | 39.9 µM (inactive) | > 100 µM (inactive) |  | 
